Experimental data as given in PubChem BioAssay AID212 (DTP/NCI, 2004).
Where “and” joins values, the source holds several entries; their conditions need not be identical. Equal values may be shown once. Results filed as inconclusive are left out. Where a SMILES comes first, the peptide text is derived from it. The star is where a group is joined. Trt = c1ccc(C(c2ccccc2)(c2ccccc2)*)cc1; Cbz = O=C(OCc1ccccc1)*

System: BDF1 mice, colon carcinoma 38 sc, T/C %
Assay: NCI In Vivo Anticancer Drug Screen. Data for tumor model Colon Carcinoma 38 (subcutaneous) in B6D2F1 (BDF1) mice
Method in brief: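 Transplantable tumor in mice; compound-treated vs vehicle-dosed controls. Measured survival or tumor size; value = T ÷ C.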

CCN(CC)CCCNc1nccc2c(C)c3[nH]c4ccncc4c3cc12
T/C (endpoint: median tumor weight (est.), dose: 0.75 mg/kg/injection, schedule: Q07DX002 (ip), vehicle: acid diluted with saline, higher = larger tumour): 76 % of control
T/C (endpoint: median tumor weight (est.), dose: 0.75 mg/kg/injection, schedule: Q07DX002 (ip), vehicle: other, higher = larger tumour): 120 % of control
T/C (endpoint: median tumor weight (est.), dose: 1.25 mg/kg/injection, schedule: Q07DX002 (ip), vehicle: other, higher = larger tumour): 106 % of control
T/C (endpoint: median tumor weight (est.), dose: 1.5 mg/kg/injection, schedule: Q07DX002 (ip), vehicle: acid diluted with saline, higher = larger tumour): 100 % of control
T/C (endpoint: median tumor weight (est.), dose: 1.5 mg/kg/injection, schedule: Q07DX002 (ip), vehicle: other, higher = larger tumour): 108 % of control
T/C (endpoint: median tumor weight (est.), dose: 3.0 mg/kg/injection, schedule: Q07DX002 (ip), vehicle: acid diluted with saline, higher = larger tumour): 46 % of control
T/C (endpoint: median tumor weight (est.), dose: 3.0 mg/kg/injection, schedule: Q07DX002 (ip), vehicle: other, higher = larger tumour): 123 % of control
T/C (endpoint: median tumor weight (est.), dose: 6.0 mg/kg/injection, schedule: Q07DX002 (ip), vehicle: acid diluted with saline, higher = larger tumour): 69 % of control
T/C (endpoint: median tumor weight (est.), dose: 6.0 mg/kg/injection, schedule: Q07DX002 (ip), vehicle: other, higher = larger tumour): 66 % of control
T/C (endpoint: median tumor weight (est.), dose: 12.0 mg/kg/injection, schedule: Q07DX002 (ip), vehicle: acid diluted with saline, higher = larger tumour): 51 % of control
T/C (endpoint: median tumor weight (est.), dose: 12.0 mg/kg/injection, schedule: Q07DX002 (ip), vehicle: other, higher = larger tumour): 26 % of control
T/C (endpoint: median tumor weight (est.), dose: 20.0 mg/kg/injection, schedule: Q07DX002 (ip), vehicle: other, higher = larger tumour): 41 % of control

CC1(C)OCC(CO)(Nc2nc(N3CC3)nc(N3CC3)n2)CO1
T/C (endpoint: median tumor weight (est.), dose: 1.25 mg/kg/injection, schedule: Q07DX002 (ip), vehicle: saline, higher = larger tumour): 72 % of control
T/C (endpoint: median tumor weight (est.), dose: 1.25 mg/kg/injection, schedule: Q07DX003 (ip), vehicle: saline, higher = larger tumour): 166 % of control
T/C (endpoint: median tumor weight (est.), dose: 2.5 mg/kg/injection, schedule: Q07DX002 (ip), vehicle: saline, higher = larger tumour): 75 % of control
T/C (endpoint: median tumor weight (est.), dose: 2.5 mg/kg/injection, schedule: Q07DX003 (ip), vehicle: saline, higher = larger tumour): 111 % of control
T/C (endpoint: median tumor weight (est.), dose: 5.0 mg/kg/injection, schedule: Q07DX002 (ip), vehicle: saline, higher = larger tumour): 65 % of control
T/C (endpoint: median tumor weight (est.), dose: 5.0 mg/kg/injection, schedule: Q07DX003 (ip), vehicle: saline, higher = larger tumour): 49 % of control
T/C (endpoint: median tumor weight (est.), dose: 10.0 mg/kg/injection, schedule: Q07DX002 (ip), vehicle: saline, higher = larger tumour): 15 % of control

CC1(C)N=C(N)N=C(N)N1c1ccc(CCCCc2ccc(S(=O)(=O)F)cc2Cl)c(Cl)c1
T/C (endpoint: median survival time, dose: 35.0 mg/kg/injection, schedule: Q01DX013 (ip), vehicle: saline with Tween-80, higher = longer survival): 117 % of control
T/C (endpoint: median survival time, dose: 92.0 mg/kg/injection, schedule: Q01DX013 (ip), vehicle: saline with Tween-80, higher = longer survival): 157 % of control
T/C (endpoint: median tumor weight (est.), dose: 6.25 mg/kg/injection, schedule: Q07DX002 (ip), vehicle: saline, higher = larger tumour): 44 % of control
T/C (endpoint: median tumor weight (est.), dose: 50.0 mg/kg/injection, schedule: Q07DX002 (ip), vehicle: saline, higher = larger tumour): 78 % of control
T/C (endpoint: median tumor weight (est.), dose: 200.0 mg/kg/injection, schedule: Q07DX002 (ip), vehicle: saline, higher = larger tumour): 1 % of control and 24 % of control and 26 % of control

CCCCNc1ccc2nnc(C)n2n1
T/C (endpoint: median tumor weight (est.), dose: 25.0 mg/kg/injection, schedule: Q07DX002 (ip), vehicle: other, higher = larger tumour): 102 % of control
T/C (endpoint: median tumor weight (est.), dose: 200.0 mg/kg/injection, schedule: Q07DX002 (ip), vehicle: other, higher = larger tumour): 98 % of control and 108 % of control

COCC(O)Cn1ccnc1[N+](=O)[O-] (stereo unspecified)
T/C (endpoint: median tumor weight (est.), dose: 12.5 mg/kg/injection, schedule: Q07DX003 (ip), vehicle: water, higher = larger tumour): 85 % of control
T/C (endpoint: median tumor weight (est.), dose: 25.0 mg/kg/injection, schedule: Q07DX003 (ip), vehicle: water, higher = larger tumour): 90 % of control
T/C (endpoint: median tumor weight (est.), dose: 50.0 mg/kg/injection, schedule: Q07DX003 (ip), vehicle: water, higher = larger tumour): 100 % of control
T/C (endpoint: median tumor weight (est.), dose: 100.0 mg/kg/injection, schedule: Q07DX003 (ip), vehicle: water, higher = larger tumour): 118 % of control
T/C (endpoint: median tumor weight (est.), dose: 200.0 mg/kg/injection, schedule: Q07DX003 (ip), vehicle: water, higher = larger tumour): 72 % of control
T/C (endpoint: median tumor weight (est.), dose: 400.0 mg/kg/injection, schedule: Q07DX003 (ip), vehicle: water, higher = larger tumour): 86 % of control

C1CN1c1nc(N2CC2)nc(N2CC2)n1
T/C (endpoint: median tumor weight (est.), dose: 0.25 mg/kg/injection, schedule: Q07DX003 (ip), vehicle: saline, higher = larger tumour): 30 % of control
T/C (endpoint: median tumor weight (est.), dose: 0.5 mg/kg/injection, schedule: Q07DX003 (ip), vehicle: saline, higher = larger tumour): 43 % of control
T/C (endpoint: median tumor weight (est.), dose: 1.0 mg/kg/injection, schedule: Q07DX003 (ip), vehicle: saline, higher = larger tumour): 36 % of control

COC(=O)C(CSC(c1ccccc1)(c1ccccc1)c1ccccc1)NC(=O)C(CC(N)=O)NC(=O)OCc1ccccc1 (stereo not drawn) (Cbz-Asn-Cys(Trt)-OMe; configuration not given here)
T/C (endpoint: median tumor weight (est.), dose: 25.0 mg/kg/injection, schedule: Q07DX002 (ip), vehicle: distilled water + Tween-80, higher = larger tumour): 95 % of control
T/C (endpoint: median tumor weight (est.), dose: 50.0 mg/kg/injection, schedule: Q07DX002 (ip), vehicle: distilled water + Tween-80, higher = larger tumour): 60 % of control
T/C (endpoint: median tumor weight (est.), dose: 100.0 mg/kg/injection, schedule: Q07DX002 (ip), vehicle: distilled water + Tween-80, higher = larger tumour): 95 % of control
T/C (endpoint: median tumor weight (est.), dose: 200.0 mg/kg/injection, schedule: Q07DX002 (ip), vehicle: distilled water + Tween-80, higher = larger tumour): 84 % of control and 88 % of control
T/C (endpoint: median tumor weight (est.), dose: 400.0 mg/kg/injection, schedule: Q07DX002 (ip), vehicle: distilled water + Tween-80, higher = larger tumour): 77 % of control
T/C (endpoint: median tumor weight (est.), dose: 800.0 mg/kg/injection, schedule: Q07DX002 (ip), vehicle: distilled water + Tween-80, higher = larger tumour): 56 % of control
